Source: article PMC11868579 (Nature Communications, 2024)
Where “and” joins values, the source holds several entries; their conditions need not be identical. Equal values may be shown once.

Experiments:
[1] = target: T1, eIF4E minor variant D127N (N127) (Homo sapiens, UniProt P06730, D127N); assay: Isothermal titration calorimetry, eIF4E minor variant; format: binding
T1 construct: made in house; host or cells: E. coli BL21-CodonPlus (DE3)-RIPL
Procedure: ITC experiments were performed on either a MicroCal VP-ITC or a MicroCal Auto-ITC200 at 25 °C in a buffer comprising 50 mM HEPES, 100 mM NaCl, 1 mM TCEP and 5% DMSO at pH 7.5. Typical titrations on the MicroCal VP-ITC were performed using 17 × 16.4 µL injections with a 250 s spacing between each injection and with a stirring speed of 307 rpm. Typical titrations on the MicroCal Auto-ITC200 were performed using 12 × 3 µL injections with a 150 s spacing between each injection and with a stirring speed of 750 rpm. ITC data analyses were performed with Origin 7.0 software using the “One Set of Sites” model.

c-Myc-activity = assay: c-Myc-regulated luciferase reporter in SW620 cells; format: cell-based, human; conditions: for c-Myc, Average / CMV, Average: SW620; for c-Myc, Average: c-Myc-regulated firefly luciferase reporter; for CMV, Average: constitutive CMV promoter-regulated renilla luciferase reporter
Procedure: Luminescence was measured using the Dual-glo luciferase assay (mean ± SEM from 3 biological replicates). b SW620 cells were transfected with a c-Myc-regulated firefly luciferase expression reporter or a constitutive CMV promoter-regulated renilla luciferase reporter. Cells were treated for 24 hr with 1 or 10 µM compound 4 or the […] kinase inhibitor AZD8055 as positive control (mean ± SEM from 3 biological replicates). An ordinary one-way ANOVA with Tukey multiple comparisons test was performed comparing c-Myc-regulated firefly luciferase expression or CMV-regulated Renilla luciferase expression following the different treatments. For c-Myc-regulated firefly luciferase expression, all significant p values […]
were <0.0001. […]
Source data is located in the Supplementary Source Data file

full-length eIF4G:eIF4E = target: T2, full-length eIF4G:eIF4E (Homo sapiens, UniProt P06730); assay: eIF4G:eIF4E binding, summary over cell line lysates; format: biochemical
T2 construct: endogenous in cells; host or cells: HeLa, SW620 or H1299 cells (lysates; intact H1299 cells in A13)
Procedure: This assay uses plates with carbon electrodes and electro-chemiluminescent labels (SULFO-TAGs) that are conjugated to detection antibodies. When an electric current is applied to the plate electrodes the SULFO-TAG labels will emit light that is measured to quantify analytes in the sample. […] For measuring exogenously expressed FLAG-tagged-eIF4E, 96-well Multiarray SECTOR plates with carbon electrodes (MSD, cat#L15XB) were coated with 25 ul of 4 µg/ml anti-FLAG M2 (Sigma-aldrich, cat#F1804, RRID:AB_262044) in PBS for 1 hr at RT with shaking. The plates were washed with 3 ×150 µl/well MSD wash buffer (cat#R61AA-1; 0.2% Tween-20 in PBS), then blocked with 150 µl/well block buffer (MSD, cat# R93AA) for 1 h. […] The incubated plates were washed 4x in 150 µl in MSD wash buffer and were re-blocked by the addition of 25 μl of blocking buffer containing a 1:500 dilution of the secondary antibody and incubated for 1 hr at RT with rotational shaking. […] Plates were then washed again 4x in 150 µl in MSD wash buffer and 25 μl of a 1:50 dilution of Goat anti-rabbit Sulfo-Tag (MSD, Cat# R32AB-1) in MSD blocking buffer was added and the plates incubated for 1 h at RT with rotational shaking. After a final wash step, 150 μl Read Buffer T4X (MSD, Cat# R92-TC2) was added and the plate read using the MSD QuickPlex SQ 120 plate reader.

[2] = Aqueous kinetic solubility at pH 7.5 by qNMR; format: physicochemical; conditions: 50 mM HEPES, 100 mM NaCl, 1 mM TCEP
Procedure: Measurement of aqueous kinetic solubility at pH 7.5
Solubility was measured in 50 mM HEPES, 100 mM NaCl (15% D2O, 85% H2O) in the presence of 1 mM TCEP at pH 7.5. Samples were prepared at 50 mM in DMSO-d6, diluted x 50 into buffer affording nominal concentrations of 1 mM and analysed by 1H quantitative NMR. Spectra were acquired at 300K in 5 mm tubes on a 400 MHz Bruker Avance III HD spectrometer equipped with a BBO-F probe using water suppression (presat/Watergate). A 5 mM sample of 4-hydroxybenzoic acid was used

T1 sequence (P06730 36-217 D127N): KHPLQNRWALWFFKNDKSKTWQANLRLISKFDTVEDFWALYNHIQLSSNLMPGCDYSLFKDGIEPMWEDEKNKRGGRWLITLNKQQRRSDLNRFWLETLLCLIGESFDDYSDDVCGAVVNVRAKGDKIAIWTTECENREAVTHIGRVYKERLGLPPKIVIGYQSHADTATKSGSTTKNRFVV
T2 sequence (P06730 2-217 limits assumed): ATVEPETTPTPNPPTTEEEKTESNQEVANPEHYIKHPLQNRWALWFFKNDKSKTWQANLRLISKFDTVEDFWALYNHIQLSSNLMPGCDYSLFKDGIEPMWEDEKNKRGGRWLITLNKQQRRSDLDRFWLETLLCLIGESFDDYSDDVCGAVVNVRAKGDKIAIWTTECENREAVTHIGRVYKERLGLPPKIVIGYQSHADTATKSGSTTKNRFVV

Structure (SMILES): CC[C@H](O[C@H](C)CO)c1ccc(-c2ccccc2F)cc1NCCO [Compound 4]
- enthalpic contribution DH ([1]; ITC, eIF4E D127N): -50.2 kJ/mol and -50.2 ± 2.1 kJ/mol
- entropic penalty -TDS ([1]; ITC, eIF4E D127N): 5.86 ± 2.1 kJ/mol
- LE (ligand efficiency) ([1]; minor variant D127N): 0.42 (kcal/mol)/heavy atom
- Kd ([1]; read-out: eIF4E Kd, ITC, minor variant D127N): 0.017 µM
- c-Myc, Average (c-Myc-activity; 1μM): 80.09
- CMV, Average (c-Myc-activity; 1μM): 89.27
- c-Myc, Average (c-Myc-activity; 10μM): 67.68
- CMV, Average (c-Myc-activity; 10μM): 82.92
- activity in c-Myc reporter assay (c-Myc-activity; SW620 cells, 1 or 10 µM, 24 hr): showed no activity
- EC50 (full-length eIF4G:eIF4E; read-out: EC50s, eIF4G:eIF4E electro-chemiluminescent binding assay, three different cell line lysates): 1.4 to 2.6 µM
- IC50 (full-length eIF4G:eIF4E; read-out: full-length eIF4G:eIF4E IC50, lysates and intact cell engagement assays): 1 to 2 µM
- Aqueous kinetic solubility (pH7.5) [2]: 400 µM
